Among the data in BindingDB's records for doi:10.1002/cbic.201600267 (Fairfield University, 2016) are Ki values, retold here.

In this assay the target is Beta-galactosidase (Escherichia coli (strain K12), UniProt P00722). Briefly: beta-Galactosidase Assay. The settings on record: 30 °C. The protocol: Enzymatic activity of beta-galactosidase from Escherichia coli (1.2 x 10^-10 M) was measured using the colorimetric substrate ortho-nitrophenyl-b-galactoside ([ONPG]: 2500, 2000, 1500, 1000, 500, 250, 125 uM) in Z-Buffer (100 mM sodium phosphate at pH = 7, 10 mM KCl, 1 mM MgSO4) to which was added fresh 50 mM beta-mercaptoethanol at 30 °C. In a 96-well plate were combined a 5x stock solution of Z-buffer (containing 250 mM beta-mercaptoethanol) and 5x stock solutions of ONPG. Samples were adjusted to a final volume of 180 uL with water. Samples were equilibrated at 30 °C for 5 minutes on a Synergy H1 microplate reader. A 10x stock solution of enzyme (20 uL) was then injected into each well and the production of 2-nitrophenol was quantified at 410 nm over a period of 10 minutes.
Sequence of Beta-galactosidase (P00722 whole entry): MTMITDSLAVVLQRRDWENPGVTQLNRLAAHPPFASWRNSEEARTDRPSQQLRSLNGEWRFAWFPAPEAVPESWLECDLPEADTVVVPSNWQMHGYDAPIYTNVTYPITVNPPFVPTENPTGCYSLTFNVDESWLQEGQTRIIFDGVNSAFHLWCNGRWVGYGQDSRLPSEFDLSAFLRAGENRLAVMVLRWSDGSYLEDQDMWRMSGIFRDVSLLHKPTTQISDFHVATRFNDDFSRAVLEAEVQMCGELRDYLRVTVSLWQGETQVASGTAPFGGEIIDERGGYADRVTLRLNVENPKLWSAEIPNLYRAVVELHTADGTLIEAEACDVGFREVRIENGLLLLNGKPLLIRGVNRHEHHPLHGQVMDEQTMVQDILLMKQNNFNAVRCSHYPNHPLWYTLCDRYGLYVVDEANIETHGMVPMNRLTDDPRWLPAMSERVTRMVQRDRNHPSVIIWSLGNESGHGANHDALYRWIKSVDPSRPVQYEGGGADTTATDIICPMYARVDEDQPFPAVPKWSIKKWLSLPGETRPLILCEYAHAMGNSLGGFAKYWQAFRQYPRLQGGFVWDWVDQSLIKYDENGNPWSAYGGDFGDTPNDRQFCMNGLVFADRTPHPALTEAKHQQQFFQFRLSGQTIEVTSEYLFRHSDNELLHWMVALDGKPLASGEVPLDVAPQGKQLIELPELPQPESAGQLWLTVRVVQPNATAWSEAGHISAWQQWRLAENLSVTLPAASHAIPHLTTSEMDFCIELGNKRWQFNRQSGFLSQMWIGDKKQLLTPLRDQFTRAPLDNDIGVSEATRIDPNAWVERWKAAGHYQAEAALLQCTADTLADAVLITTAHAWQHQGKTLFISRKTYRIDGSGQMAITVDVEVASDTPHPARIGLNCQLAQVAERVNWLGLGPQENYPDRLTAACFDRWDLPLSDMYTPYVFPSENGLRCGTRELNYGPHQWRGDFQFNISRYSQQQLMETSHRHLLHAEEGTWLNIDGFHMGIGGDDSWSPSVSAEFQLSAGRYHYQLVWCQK
With `O=C(NCCOCCOCCOCCNC(=O)c1ccc(C(=O)OCCS[C@@H]2O[C@H](CO)[C@H](O)[C@H](O)[C@H]2O)c(C(c2ccccc2)c2ccccc2)c1)c1ccc(C(=O)c2ccccc2)cc1` [β-gal inhibitor, 13], the Ki is 3 µM.

As to `CC(C)S[C@@H]1O[C@H](CO)[C@H](O)[C@H](O)[C@H]1O` [IPTG], the Ki came out at 76 µM. Regarding `O=C(NCCOCCOCCOCCNC(=O)c1ccc(C(=O)OCCOCCS[C@@H]2O[C@H](CO)[C@H](O)[C@H](O)[C@H]2O)c(C(c2ccccc2)c2ccccc2)c1)c1ccc(C(=O)c2ccccc2)cc1` [β-gal inhibitor, 14], the Ki amounted to 3.9 µM.

`O=C(NCCOCCOCCOCCNC(=O)c1ccc(C(=O)OCCOCCOCCOCCS[C@@H]2O[C@H](CO)[C@H](O)[C@H](O)[C@H]2O)c(C(c2ccccc2)c2ccccc2)c1)c1ccc(C(=O)c2ccccc2)cc1` [β-gal inhibitor, 15]: the Ki turned out to be 5.9 µM.

For orientation: Ki means a measure of affinity in units of concentration, obtained from inhibition or displacement.
